From ChEMBL document CHEMBL1153355, “Synthesis and cytotoxic activities of novel phenacylimidazolium bromides” (Bioorg Med Chem Lett, 2009) come the findings set out here.

Holding throughout (format): functional, cell-based
Experiment [1] has as its system HL-60. As to the kind of experiment: Cytotoxicity against human HL60 cells by MTT assay.
The test system of experiment [2] is A-431. As to the kind of experiment: Cytotoxicity against human A431 cells by MTT assay.
Experiment [3] has as its system SK-OV-3. Kind of experiment: Cytotoxicity against human SKOV3 cells by MTT assay.
The test system of experiment [4] is MKN-28. As to the kind of experiment: Cytotoxicity against human MKN28 cells by MTT assay.
The subject of experiment [5] is K562. Kind of experiment: Cytotoxicity against human K562 cells by MTT assay.
Experiment [6] has as its system SMMC-7721. As to the kind of experiment: Cytotoxicity against human SMMC7721 cells by MTT assay.
The subject of experiment [7] is HEp-2. As to the kind of experiment: Cytotoxicity against human Hep2 cells by MTT assay.
Experiment [8] in a line: Cytotoxicity against human GLC15 cells by MTT assay.

pIC50: −log10 of the molar value.

For `Cc1cc(C)c(-n2cc[n+](CC(=O)C(C)(C)C)c2)c(C)c1`, the pIC50 in experiment [1] is 3.95; in experiment [2] it was less than 3.70; in experiment [3], 3.72; in experiment [4], less than 3.70; in experiment [5], less than 3.70; in experiment [6], 3.81. Also, the pIC50 in experiment [7] was 3.88; in experiment [8], less than 3.70.

With `Cc1cc(C)c(-n2c[n+](CC(=O)c3ccc4ccccc4c3)c(C)c2C)c(C)c1`, the pIC50 in experiment [1] was 5.39; in experiment [2] it was 5.41; in experiment [3], 5.43; in experiment [4], 5.77; in experiment [5], 6.70; in experiment [6], 5.01. Further, the pIC50 in experiment [7] is 5.72; in experiment [8] it was 5.37.

For the compound `COc1ccc(CCn2cc[n+](CC(=O)c3ccc4ccccc4c3)c2)cc1OC`, the negative logarithm of the IC50 (pIC50) in experiment [1] is 4.27; in experiment [2], 4.12; in experiment [3] it was 4.96; in experiment [4], 4.07; in experiment [5], 3.77; in experiment [6], 4.46. Also, the results for the pIC50 in experiment [7] and in experiment [8] were 4.11 and 4.30, respectively.

Take `COc1ccc(C(=O)C[n+]2ccn(CCc3ccc(OC)c(OC)c3)c2)cc1`: the pIC50 in experiment [1] was 4.30; in experiment [2] it was 3.73; in experiment [3], 4.43; in experiment [4], less than 3.70; in experiment [5], less than 3.70; in experiment [6], 4.21. Moreover, the pIC50 in experiment [7] is 4.21; in experiment [8], 4.48.

With `Cc1cc(C)c(-n2cc[n+](CC(=O)c3ccc4ccccc4c3)c2)c(C)c1`, the pIC50 was 5.55 in experiment [1]; 5.36 in experiment [2]; 5.68 in experiment [3]; 5.06 in experiment [4]; 5.57 in experiment [5]; 5.17 in experiment [6]. In addition, the pIC50 is 6.15 in experiment [7] and 6.40 in experiment [8].

For `Cc1cc(C)c(-n2cc[n+](CC(=O)c3ccc(Br)cc3)c2)c(C)c1`, the negative-log IC50 (pIC50) in experiment [1] is 4.87; in experiment [2], 5.27; in experiment [3], 4.48; in experiment [4], 4.12; in experiment [5], 4.67; in experiment [6] it was 4.62. The figures for the pIC50 in experiment [7] and in experiment [8] were 4.66 and 4.43, respectively.

`COc1ccc(C(=O)C[n+]2ccn(C34CC5CC(CC(C5)C3)C4)c2)cc1`: the negative logarithm of the IC50 (pIC50) was 4.83 in experiment [1]; 5.20 in experiment [2]; 5.25 in experiment [3]; 3.80 in experiment [4]; 5.82 in experiment [5]; 4.55 in experiment [6]. In addition, the pIC50 was 5.15 in experiment [7] and 4.23 in experiment [8].

As for `CC(C)c1cccc(C(C)C)c1-n1cc[n+](CC(=O)c2ccc3ccccc3c2)c1`, the pIC50 in experiment [1] is 5.82; in experiment [2] it was 4.83; in experiment [3] it was 5.72; in experiment [4], 5.02; in experiment [5], 6.40; in experiment [6], 4.98. For the same compound, the values for the pIC50 in experiment [7] and in experiment [8] were 5.46 and 5.21, respectively.

Consider `COc1ccc(C(=O)C[n+]2ccn(-c3ccc([N+](=O)[O-])cc3)c2)cc1`, for which the negative logarithm of the IC50 (pIC50) is 5.07 in experiment [1]; 4.12 in experiment [2]; 4.58 in experiment [3]; 3.95 in experiment [4]; 3.95 in experiment [5]; less than 3.70 in experiment [6]. The pIC50 in experiment [7] is 4.38; in experiment [8], 4.01.

For the compound `O=C(C[n+]1ccn(C23CC4CC(CC(C4)C2)C3)c1)c1ccc2ccccc2c1`, the pIC50 in experiment [1] was 5.38; in experiment [2] it was 5.19; in experiment [3], 5.40; in experiment [4], 4.89; in experiment [5], 5.47; in experiment [6] it was 5.11. Moreover, the negative-log IC50 (pIC50) in experiment [7] and in experiment [8] was 6.10 each time.

With `COc1ccc(C(=O)C[n+]2ccn(-c3c(C(C)C)cccc3C(C)C)c2)cc1`, the negative-log IC50 (pIC50) in experiment [1] was 5.96; in experiment [2], 5.38; in experiment [3], 5.30; in experiment [4], 5.00; in experiment [5] it was 5.59; in experiment [6] it was 5.00. Also, the pIC50 in experiment [7] is 5.55; in experiment [8], 5.29.

As to `CC(C)c1cccc(C(C)C)c1-n1cc[n+](CC(=O)c2ccc3c(c2)COC3)c1`, the pIC50 was 5.35 in experiment [1]; 5.29 in experiment [2]; 4.59 in experiment [3]; 4.22 in experiment [4]; 4.92 in experiment [5]; 4.35 in experiment [6]. In addition, the negative-log IC50 (pIC50) in experiment [7] is 4.94; in experiment [8], 4.43.

As to `Cc1cc(C)c(-n2cc[n+](CC(=O)c3ccc4c(c3)COC4)c2)c(C)c1`, the pIC50 in experiment [1] is 5.21; in experiment [2], 4.74; in experiment [3], 4.50; in experiment [4], 4.07; in experiment [5], 4.15; in experiment [6] it was 4.47. Moreover, the pIC50 in experiment [7] is 4.91; in experiment [8] it was 4.63.

Turning to `O=C(C[n+]1ccn(C23CC4CC(CC(C4)C2)C3)c1)c1ccccc1`, the negative logarithm of the IC50 (pIC50) in experiment [1] was 4.41; in experiment [2], 4.88; in experiment [3] it was 4.23; in experiment [4], 3.70; in experiment [5] it was less than 3.70; in experiment [6] it was 3.97. The pIC50 is 4.03 in experiment [7] and 3.97 in experiment [8].

In the case of `CC(C)(C)n1cc[n+](CC(=O)c2ccccc2)c1`, the negative logarithm of the IC50 (pIC50) in experiment [1], in experiment [2], in experiment [3], in experiment [4], in experiment [5] and in experiment [6] was less than 3.70 each time. For the same compound, the pIC50 in experiment [7] and in experiment [8] was less than 3.70 in each case.

As for `CC(=O)Cc1ccc(-n2cc[n+](CC(=O)c3ccccc3)c2)cc1`, the negative logarithm of the IC50 (pIC50) is 4.59 in experiment [1]; 5.15 in experiment [2]; less than 3.70 in experiment [3]; less than 3.70 in experiment [4]; less than 3.70 in experiment [5]; 4.27 in experiment [6]. In addition, the pIC50 is less than 3.70 in experiment [7] and 4.27 in experiment [8].

For `COc1ccc(C(=O)C[n+]2ccn(C(C)(C)C)c2)cc1`, the negative logarithm of the IC50 (pIC50) in experiment [1] is less than 3.70; in experiment [2], 4.18; in experiment [3], less than 3.70; in experiment [4] it was less than 3.70; in experiment [5], less than 3.70; in experiment [6], less than 3.70. The pIC50 in experiment [7] was 3.93; in experiment [8], 3.75.

With `CC(C)c1cccc(C(C)C)c1-n1cc[n+](CC(=O)c2ccc(Br)cc2)c1`, the negative logarithm of the IC50 (pIC50) was 5.42 in experiment [1]; 5.34 in experiment [2]; 4.95 in experiment [3]; 4.45 in experiment [4]; 5.55 in experiment [5]; 4.96 in experiment [6]. Moreover, the values for the pIC50 in experiment [7] and in experiment [8] were 5.04 and 4.74, respectively.

Regarding `Cc1cc(C)c(-n2cc[n+](CC(=O)c3ccccc3)c2)c(C)c1`, the negative logarithm of the IC50 (pIC50) in experiment [1] is 4.50; in experiment [2], 4.81; in experiment [3] it was 4.52; in experiment [4], less than 3.70; in experiment [5] it was less than 3.70; in experiment [6], 4.77. The pIC50 was 4.01 in experiment [7] and less than 3.70 in experiment [8].

Take `COc1ccc(C(=O)C[n+]2ccn(-c3ccc(CC(C)=O)cc3)c2)cc1`: the pIC50 in experiment [1] is 4.35; in experiment [2], 4.84; in experiment [3] it was 4.21; in experiment [4] it was 3.85; in experiment [5], 4.78; in experiment [6] it was 4.04. In addition, the negative logarithm of the IC50 (pIC50) is 4.07 in experiment [7] and 4.58 in experiment [8].

As to `COc1ccc(C(=O)C[n+]2ccn(-c3c(C)cc(C)cc3C)c2)cc1`, the pIC50 is 5.51 in experiment [1]; 5.77 in experiment [2]; 5.80 in experiment [3]; 5.30 in experiment [4]; 5.62 in experiment [5]; 5.33 in experiment [6]. Also, the values for the pIC50 in experiment [7] and in experiment [8] were 5.82 and 5.66, respectively.
